Active and inactive are the calls of the source. The calls are words filed in the database; no cut-off is given here.
How the values were obtained:
HeLa = assay: Cytotoxicity against human HeLa cells assessed as reduction in cell viability incubated for 72 hrs by EZ-Cytox colorimetric assay; type: functional, cell-based
A549 = assay: Cytotoxicity against human A549 cells assessed as reduction in cell viability incubated for 72 hrs by EZ-Cytox colorimetric assay; type: functional, cell-based; conditions: for IC50: A549, 72 h
MDA-MB-231 = assay: Cytotoxicity against human MDA-MB-231 cells assessed as reduction in cell viability incubated for 72 hrs by EZ-Cytox colorimetric assay; type: functional, cell-based; conditions: for IC50: MDA-MB-231, 72 h
SW480 = assay: Cytotoxicity against human SW480 cells assessed as reduction in cell viability incubated for 72 hrs by EZ-Cytox colorimetric assay; type: functional, cell-based; conditions: for IC50: SW480, 72 h
U2OS = assay: Cytotoxicity against human U2OS cells assessed as reduction in cell viability incubated for 72 hrs by EZ-Cytox colorimetric assay; type: functional, cell-based
Histone deacetylase = assay: Inhibition of HDAC in human HeLa nuclear extract using Fluor de Lys as substrate incubated for 20 mins by fluorometric assay; type: subcellular, Nucleus

Row | IC50 (Histone deacetylase) [µM] | Compound | IC50 (HeLa) [µM] | IC50 (A549) [µM] | IC50 (MDA-MB-231) [µM] | IC50 (SW480) [µM] | IC50 (U2OS) [µM] | further results
1 | 39.67 | C[C@H](C[C@@H](C)C(=O)c1ccc(N(C)C)cc1)C(=O)O | > 100 | > 100 | > 100 | > 100 | > 100 | –
2 | > 100 | CNc1ccc(C(=O)[C@H](C)C[C@@H](C)C(=O)O)cc1 | > 100 | > 100 | > 100 | > 100 | > 100 | –
3 | > 100 | CNC(=O)/C=C/C(C)=C/[C@@H](C)C(=O)c1ccc(N(C)C)cc1 | – | – | – | – | – | –
4 | 95.13 | CC(/C=C/C(=O)O)=C\[C@@H](C)C(=O)c1ccc(N(C)C)cc1 [TRICHOSTATIC ACID] | – | – | – | – | – | –

Further lines, the compound ahead of its results:

Row | Compound | IC50 (Histone deacetylase) [µM] | IC50 (HeLa) [µM] | IC50 (A549) [µM] | IC50 (MDA-MB-231) [µM] | IC50 (SW480) [µM] | IC50 (U2OS) [µM] | further results
5 | CC(/C=C/C(=O)N[C@@H](CCC(=O)O)C(=O)O)=C\[C@@H](C)C(=O)c1ccc(N(C)C)cc1 | > 100 | – | – | – | – | – | –
6 | CC(/C=C/C(=O)N[C@@H](CCC(N)=O)C(=O)O)=C\[C@@H](C)C(=O)c1ccc(N(C)C)cc1 | > 100 | – | – | – | – | – | –
7 | CC(/C=C/C(=O)Nc1ccc(C(=O)N[C@@H](CCC(N)=O)C(=O)O)cc1)=C\[C@@H](C)C(=O)c1ccc(N(C)C)cc1 | 19.96 | > 100 | > 100 | > 100 | > 100 | > 100 | –
8 | CC(/C=C/C(N)=O)=C\[C@@H](C)C(=O)c1ccc(N(C)C)cc1 | > 100 | – | – | – | – | – | –
9 | CC(/C=C/C(=O)NO[C@@H]1O[C@H](CO)[C@@H](O)[C@H](O)[C@H]1O)=C\[C@@H](C)C(=O)c1ccc(N(C)C)cc1 | 23.63 | – | – | – | 72 | 94.9 | –
10 | CC(/C=C/C(=O)NO)=C\[C@@H](C)C(=O)c1ccc(N(C)C)cc1 | – | – | – | – | – | – | Activity (HeLa): Active; Activity (A549): Active; Activity (MDA-MB-231): Active; Activity (SW480): Active; Activity (U2OS): Active

Source: ChEMBL document CHEMBL4840333, “Ulleunganilines A-C, Trichostatin Analogues Bearing a Modified Side Chain from Streptomyces sp. 13F051” (J Nat Prod, 2021)
